Test results from patent US20240299400A1, “Transcription Factor GLI1 Inhibitors and Uses Thereof” (University of Connecticut, priority 2023, published 2024).

Experiments:
[1] = test system: PANC-1 (pancreatic); assay: MTS anti-proliferative assay in PANC-1 cells; assay type: cell-based; settings: Table 8, 48 h, mean ± SEM
Description: (§1) Cell viability was assessed by MTS proliferation assay kit (Promega) per manufacturer's protocol. Briefly, 2×10^4 cells were plated in a 96-well plate in 100 μL growth medium to make the cell population at ˜80% confluence. After 24 h, 1 μL drug solution was added to each well. DMSO was used as vehicle compound. After 48 h incubation (37° C., 5% CO2), 20 μL of freshly prepared 3-(4,5-dimethylthiazol-2-yl)-5-(3-carboxymethoxyphenyl)-2-(4-sulfophenyl)-2H-tetrazolium (MTS)/phenazine methosulfate (PMS) solution was added to each well, and the plate was returned to the incubator for 1 h. Absorbance at 490 nm was recorded, and the result was analyzed by GraphPad Prism 5. GI50 values represent mean±SEM for at least two separate experiments performed in triplicate.

[2] = test system: GLI1 mRNA expression; assay: RT-qPCR GLI1 mRNA expression in ASZ001 BCC cells; assay type: cell-based, mouse; settings: Ave ± SEM, read-out: RT-qPCR, IC50 ASZ001
Description: (§2) ASZ001 and Sufu-KO cells were seeded in 96-well plates (10,000/well, 100 μL) and incubated overnight under growth conditions. On the second day, ‘growth’ media was removed and replaced by ‘assay’ media (100 μL). On the third day, cells were treated with a serial dilution of drugs or DMSO for 48 h. mRNA expression was determined through Taqman Fast Cells-to-CT Kit (#4399003) per the manufacturer's instructions. In brief, cells were washed with chilled PBS, then mixed with lysis solution containing DNase I and incubated at RT for 5 min. Stop solution was then added to quench the lysis reagents. cDNA was then synthesized through a BioRad MyCycler following addition of reverse transcriptase. Finally, the cDNA was amplified through an ABI 7500 system following addition of Taqman Fast Universal PCR Master Mix and Taqman Gene Expression Primer. Relative gene expression levels were computed by the ΔΔCt method. Values represent mRNA expression relative to DMSO control (set at 1.0). Data were analyzed using GraphPad Prism, and IC50 values are the mean±SEM for at least two separate experiments performed in triplicate. Primers used are as follows: mouse ActB (Mm00607939_s1); mouse GLI1 (Mm00494645_ml); mouse Gli2 (Mm01293117_ml); mouse Ptch1 (Mm00436026_ml); mouse Hhip (Mm00469580_ml).

[3] = test system: DAOY (MB); assay: MTS anti-proliferative assay in DAOY cells; assay type: cell-based; settings: Table 8, 48 h, mean ± SEM
Description: as §1

[4] = test system: GLI1 mRNA expression; assay: RT-qPCR GLI1 mRNA expression in Sufu-KO MEFs; assay type: cell-based, mouse; settings: Ave ± SEM, read-out: RT-qPCR, IC50 Sufu-KO
Description: as §2

[5] = test system: ASZ001 cells; assay: MTS anti-proliferative assay in ASZ001 cells; assay type: cell-based, murine; settings: Ave ± SEM
Description: as §1

[6] = test system: GLI1 protein levels; assay: Western blot GLI1 protein expression in ASZ001 cells; assay type: cell-based, murine; settings: 25 μM
Description: (§3) ASZ001 cells were plated as described above and treated with drugs or vehicle control. Following incubation, cells were washed with chilled PBS and lysed with RIPA buffer containing […] PMSF protease inhibitor (Thermo Scientific #26978). Supernatant was collected following 15 min centrifugation at 12,000 rpm and 4° C. Protein concentrations from cell extracts were determined through the BCA kit (Pierce #23228) per the manufacturer's instructions. Proteins from either cell lysate or cell-free biochemical assay were then loaded on 12% SDS-PAGE. Following electrophoresis, proteins were transferred onto nitrocellulose membrane at 100 V for 120 min at 4° C. On a clean tray with constant gentle shaking, the membrane was sequentially submerged in 5% BSA for 1 h, and incubated with the primary antibody indicated overnight at 4° C. After washes with TBST, the appropriate secondary antibody was added to the tray for a 2 h incubation at RT. Chemiluminescent detection on film was visualized using ECL reagents (BioRad #1705060) and subsequently quantitated using Image J (http://imagej.nih.gov). Primary antibodies were used at 1:2000 dilution and are as follows: GLI1 (#MA5-32553); Gli2 (#PA5-79314); β-Actin (#PA1-16889). Secondary antibody (Goat anti-Rabbit, #32460) was used at a 1:5000 dilution. All antibodies were purchased from Invitrogen.

[7] = test system: GLI2 protein expression; assay: Western blot GLI2 protein expression in ASZ001 cells; assay type: cell-based, murine; settings: 25 μM
Description: as §3

[8] = molecular target: T1, GLI1-ZFD (Homo sapiens, UniProt P08151); assay: Microscale thermophoresis (MST) binding to GLI1-ZFD; settings: Table 5, Ave ± SEM
T1 construct: GLI1-ZFD Expression and Purification; made in house
T1 sequence (P08151 234-388 limits assumed): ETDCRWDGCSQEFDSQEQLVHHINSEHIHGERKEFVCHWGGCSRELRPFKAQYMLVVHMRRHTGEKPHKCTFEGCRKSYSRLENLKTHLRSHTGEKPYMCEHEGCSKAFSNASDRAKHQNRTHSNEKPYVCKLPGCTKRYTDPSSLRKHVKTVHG
Description: The protein expression and purification experiments followed the previous reported procedures [C. A. Maschinot, et al., Synthesis and evaluation of third generation vitamin D3 analogues as inhibitors of hedgehog signaling. Euro. J. Med. Chem. 162 (2019) 495-506].
GLI1 protein labeling was performed through the Monolith Protein Labeling Kit RED-NHS 2nd Generation (Nanotemper #MO-LO11) per the manufacturer's instructions. Briefly, GLI1 (100 μg, 1 mg/mL) underwent buffer exchange to remove incompatible ingredients like Tris or DTT. Proteins in the Labeling Buffer were incubated with freshly prepared dye (˜3-fold excess of dye) for 30 min at RT in the dark. Unreacted ‘free’ dye was removed by a gel-filtration column. Protein concentration and degree-of-labeling were calculated by measuring absorption at 280 nm and 650 nm. For each assay, 200 nM GLI1 in MST Buffer was mixed with compound dilution in DMSO (DMSO<5%, v/v). The mixture was then loaded to a capillary and the thermophoresis was subsequently determined through Monolith NT.115 station. Results were analyzed by MO.Affinity Analysis software and visualized by Graphpad Prism. MST Buffer: 50 mM HEPES, pH 8.3, 100 mM NaCl.

[9] = test system: Hhip mRNA expression; assay: RT-qPCR Hhip mRNA expression in ASZ001 cells; assay type: cell-based, mouse; settings: 10 μM, FIG. 4A
Description: as §2

[10] = test system: GLI1 mRNA expression; assay: RT-qPCR GLI1 mRNA expression in OHCs-stimulated C3H10T1/2 MEFs; assay type: cell-based, mouse; settings: C3H10T1/2 MEFs, 10 μM, relative to Hh-agonist OHCs (set as 100%), mean ± SEM
Description: as §2
C3H10T1/2 MEFs were seeded in 24-well plates (50,000/well, 500 μL). Following 24 h incubation, the ‘growth’ media was removed and replaced with ‘assay’ media (500 μL). On the third day, cells were treated with either DMSO, OHCs, or OHCs+drugs. Following a 24 h incubation, gene expression analysis was carried out following identical protocols as described above.

[11] = Mus musculus, ASZ001, Table 7, GLI1 mRNA
[12] = Mus musculus, Table 7, GLI1 mRNA
[13] = Mus musculus, ASZ001, Table 7, 48 h

| Compound | GI50 ([1]; Homo sapiens, PANC-1) [µM] | IC50 [2, 11] [µM] | GI50 ([3]; Homo sapiens, Daoy) [µM] | IC50 [4, 12] [µM] | GI50 [5, 13] [µM] | GI50 [1] [µM] | GLI1 protein levels (in words) [6] | GLI2 protein expression (in words) [7] | IC50 ([2]; Table 5, GLI1 mRNA) [µM] | GI50 [3] [µM] | Kd [8] [µM] | IC50 ([4]; Table 5, GLI1 mRNA) [µM] | GI50 ([5]; Table 5, 48 h) [µM] | expression of Hhip mRNA (in words) [9] | % Gli1 Expression [10] [%] |
| --- | --- | --- | --- | --- | --- | --- | --- | --- | --- | --- | --- | --- | --- | --- | --- |
| Cc1ccc2ccc(C(Nc3ccccn3)c3ccc(N(C)C)cc3)c(O)c2n1 (stereo not drawn) [Compound 42, 7-((4-Dimethylaminophenyl)(pyridin-2-ylamino)methyl)-2-methylquinolin-8-ol] | 45.4 ± 10.3 | 1.5 ± 0.6 | 18.3 ± 3.6 | 1.2 ± 0.3 | 10.1 ± 1.8 | – | – | – | – | – | – | – | – | – | – |
| Cc1ccc2ccc(C(Nc3ccccn3)c3ccc(N4CCCC4)cc3)c(O)c2n1 (stereo not drawn) [Compound 43, 7-((4-(Pyrrolidin-1-yl)phenyl)(pyridin-2-ylamino)methyl)-2-methylquinolin-8-ol] | 29.6 ± 5.2 | 1.3 ± 0.3 | 12.8 ± 1.9 | 1.2 ± 0.6 | 8.8 ± 2.4 | – | – | – | – | – | – | – | – | – | – |
| Cc1ccc2ccc(C(Nc3ccccn3)c3ccc(N4CCCCC4)cc3)c(O)c2n1 (stereo not drawn) [Compound 44, 7-((4-(Piperidin-1-yl)phenyl)(pyridin-2-ylamino)methyl)-2-methylquinolin-8-ol] | 52.7 ± 5.3 | 4 ± 0.8 | 22.6 ± 4 | 4.5 ± 1 | 27.7 ± 5.3 | – | – | – | – | – | – | – | – | – | – |
| Cc1ccc2ccc(C(Nc3ccccn3)c3ccc(N4CCOCC4)cc3)c(O)c2n1 (stereo not drawn) [Compound 45, 7-((4-Morpholinophenyl)(pyridin-2-ylamino)methyl)-2-methylquinolin-8-ol] | 61.1 ± 11.5 | 2.2 ± 0.8 | 24.2 ± 5.8 | 1.4 ± 0.4 | 18.3 ± 1.5 | – | – | – | – | – | – | – | – | – | – |
| CN(C)c1ccccc1CN1CCCN(Cc2ccccc2N(C)C)C1c1ccncc1 [GANT61, reference compound] | – | – | – | – | – | 35.2 ± 7.5 | significantly down-regulated | inactive | 11.1 ± 1.5 | 27.2 ± 3.6 | 65.2 ± 15.2 | 5.3 ± 1.4 | 57.5 ± 14 | more effective at reducing Hhip expression compared to GLI1 | 72.4 ± 5.6 |
